The values below are quoted from earlier work in patent US20060046998A1, “Method of treatment of gastroesophageal reflux disease and laryngopharyngeal reflux disease” (Fairfield Clinical Trials, LLC, priority 2004, published 2006).

The conditions of this data set: oral, when beginning a course of PPI therapy.

Regarding `COc1ccc2nc([S@@+]([O-])Cc3ncc(C)c(OC)c3C)[nH]c2c1` [esomeprazole], the “time to obtain maximal symptomatic relief” value was “four”.
As for `Cc1c(OCC(F)(F)F)ccnc1C[S+]([O-])c1nc2ccccc2[nH]1` (centres unmarked) [lansoprazole], the “time to obtain maximal symptomatic relief” value is reported as “five”.
